Reference: patent EP0097439A2, “A crystalline prostaglandin salt” (THE UPJOHN COMPANY, priority 1982, dated 1984)
Where two headings read alike, the source gives them in different places.

Experiment: Plasma levels of 9-deoxo-16,16-dimethyl-9-methylene-PGE2 by radioimmunoassay after insertion of a suppository
Assay type: in vivo, Rhesus monkeys (Macaca mulatta)
Settings: for concentration at 0.25 h / concentration at 1 h / concentration at 1.5 h / concentration at 2 h / concentration at 3 h / concentration at 4 h / concentration at 6 h / concentration at 24 h / concentration at 0.5 h: rhesus monkey, plasma, 30 mg, read-out: Drug Levels
Text: A. Midtrimester pregnant female Rhesus monkeys (Macaca mulatta) are used. (The first day of menstrual bleeding is designated Day 1 of the menstrual cycle; the first day a female is placed with a male for breeding is designated Day 1 of pregnancy. Pregnancy is confirmed by abdominal palpation of the uterus.)
Blood samples are collected into heparinized syringes at specified times following insertion of a suppository in pregnant or non- pregnant monkeys. Plasma is extracted and assayed for 9-deoxo-16,16-dimethyl-9-methylene-PGE2 content by radioimmunoassay.
C. Six suppository lots are prepared (4), each containing 9- deoxo-16,16-dimethyl-9-methylene-PGE2 or its crystalline potassium salt (Examples 1 and 2). Two lots are made with Witepsol H15 alone as the suppository base, two with Witepsol HIS wax plus 2% colloidal silicon dioxide (CSD) and two with Witepsol H15 plus 2% CSD plus 10% triacetin. Suppositories are prepared using Witepsol H15 suppository wax. Free acid or potassium salt is dispersed in the hot wax using a homogenizer. Two percent colloidal silicon dioxide (CSD) is mixed in by further homogenization. In the third formulation, triacetin (10%) is added before the CSD and then homogenized for one minute. Suppositories are formed in 800 mg aluminum molds and are stored at 4°C until used.
D. The plasma levels of 9-deoxo-16,16-d1methy1-9-methy1ene-PGE2 in monkeys treated with 6 formulations containing either 9-deoxo-16,16-dimethyl-9-methylene-PGE2 free acid or potassium salt are shown in Tables 1-6. In general, higher blood levels are measured in pregnant Rhesus monkeys than in non-pregnant monkeys.

[1] = Monkey #1, 30 mg Free Acid in H15 Suppositories
[2] = Monkey #2, 30 mg Free Acid in H15 Suppositories
[3] = Monkey #3 (pregnant animal with uterine recording), 30 mg Free Acid in H15 Suppositories
[4] = Monkey #7, 30 mg Free Acid in H15 Plus 2% CSD Suppositories
[5] = Monkey #8, 30 mg Free Acid in H15 Plus 2% CSD Suppositories
[6] = Monkey #9 (pregnant animal with uterine recording), 30 mg Free Acid in H15 Plus 2% CSD Suppositories
[7] = Monkey #13, 30 mg Free Acid in H15 Plus 2% CSD + 10% Triacetin Suppositories
[8] = Monkey #14, 30 mg Free Acid in H15 Plus 2% CSD + 10% Triacetin Suppositories
[9] = Monkey #15 (pregnant animal with uterine recording), 30 mg Free Acid in H15 Plus 2% CSD + 10% Triacetin Suppositories

bioavailability (drug plasma levels and uterine activity), free acid versus potassium salt (Rhesus monkeys, 30 mg (acid equivalents) per dose in three suppository formulations): equally bioavailable | concentration at 0.25 h [1]: 0.00514 µg/mL | concentration at 1 h (Monkey #1, 1.0 Hours, 30 mg Free Acid in H15 Suppositories): 0.00439 µg/mL | concentration at 1.5 h [1]: 0.00789 µg/mL | concentration at 2 h (Monkey #1, 2.0 Hours, 30 mg Free Acid in H15 Suppositories): 0.00416 µg/mL | concentration at 3 h (Monkey #1, 3.0 Hours, 30 mg Free Acid in H15 Suppositories): 0.00023 µg/mL | concentration at 4 h (Monkey #1, 4.0 Hours, 30 mg Free Acid in H15 Suppositories): 0.00743 µg/mL | concentration at 6 h (Monkey #1, 6.0 Hours, 30 mg Free Acid in H15 Suppositories): 0.0101 µg/mL | concentration at 24 h (Monkey #1, 24.0 Hours, 30 mg Free Acid in H15 Suppositories): 0.00768 µg/mL | concentration at 0.5 h (Monkey #1, .5 Hours, 30 mg Free Acid in H15 Suppositories): 0.00169 µg/mL | concentration at 0.25 h [2]: 0.00061 µg/mL | concentration at 1.5 h [2]: 0.00335 µg/mL | concentration at 2 h (Monkey #2, 2.0 Hours, 30 mg Free Acid in H15 Suppositories): 0.00556 µg/mL | concentration at 3 h (Monkey #2, 3.0 Hours, 30 mg Free Acid in H15 Suppositories): 0.013 µg/mL | concentration at 4 h (Monkey #2, 4.0 Hours, 30 mg Free Acid in H15 Suppositories): 0.0147 µg/mL | concentration at 6 h (Monkey #2, 6.0 Hours, 30 mg Free Acid in H15 Suppositories): 0.0173 µg/mL | concentration at 24 h (Monkey #2, 24.0 Hours, 30 mg Free Acid in H15 Suppositories): 0.00497 µg/mL | concentration at 0.25 h [3]: 0.142 µg/mL | concentration at 1 h (Monkey #3 (pregnant animal with uterine recording), 1.0 Hours, 30 mg Free Acid in H15 Suppositories): 0.0939 µg/mL | concentration at 1.5 h [3]: 0.0668 µg/mL | concentration at 2 h (Monkey #3 (pregnant animal with uterine recording), 2.0 Hours, 30 mg Free Acid in H15 Suppositories): 0.0608 µg/mL | concentration at 3 h (Monkey #3 (pregnant animal with uterine recording), 3.0 Hours, 30 mg Free Acid in H15 Suppositories): 0.0561 µg/mL | concentration at 4 h (Monkey #3 (pregnant animal with uterine recording), 4.0 Hours, 30 mg Free Acid in H15 Suppositories): 0.0357 µg/mL | concentration at 6 h (Monkey #3 (pregnant animal with uterine recording), 6.0 Hours, 30 mg Free Acid in H15 Suppositories): 0.0137 µg/mL | concentration at 24 h (Monkey #3 (pregnant animal with uterine recording), 24.0 Hours, 30 mg Free Acid in H15 Suppositories): 0.00567 µg/mL | concentration at 0.5 h (Monkey #3 (pregnant animal with uterine recording), .5 Hours, 30 mg Free Acid in H15 Suppositories): 0.0636 µg/mL | concentration at 0.25 h [4]: 0.0392 µg/mL | concentration at 0.5 h (Monkey #7, 0.5 Hours, 30 mg Free Acid in H15 Plus 2% CSD Suppositories): 0.0445 µg/mL | concentration at 1 h (Monkey #7, 1.0 Hours, 30 mg Free Acid in H15 Plus 2% CSD Suppositories): 0.0639 µg/mL | concentration at 1.5 h [4]: 0.0422 µg/mL | concentration at 2 h (Monkey #7, 2 Hours, 30 mg Free Acid in H15 Plus 2% CSD Suppositories): 0.037 µg/mL | concentration at 3 h (Monkey #7, 3 Hours, 30 mg Free Acid in H15 Plus 2% CSD Suppositories): 0.0169 µg/mL | concentration at 4 h (Monkey #7, 4 Hours, 30 mg Free Acid in H15 Plus 2% CSD Suppositories): 0.0132 µg/mL | concentration at 6 h (Monkey #7, 6 Hours, 30 mg Free Acid in H15 Plus 2% CSD Suppositories): 0.0065 µg/mL | concentration at 24 h (Monkey #7, 24 Hours, 30 mg Free Acid in H15 Plus 2% CSD Suppositories): 0.00401 µg/mL | concentration at 0.25 h [5]: 0.0514 µg/mL | concentration at 0.5 h (Monkey #8, 0.5 Hours, 30 mg Free Acid in H15 Plus 2% CSD Suppositories): 0.134 µg/mL | concentration at 1 h (Monkey #8, 1.0 Hours, 30 mg Free Acid in H15 Plus 2% CSD Suppositories): 0.0882 µg/mL | concentration at 1.5 h [5]: 0.0611 µg/mL | concentration at 2 h (Monkey #8, 2 Hours, 30 mg Free Acid in H15 Plus 2% CSD Suppositories): 0.0783 µg/mL | concentration at 3 h (Monkey #8, 3 Hours, 30 mg Free Acid in H15 Plus 2% CSD Suppositories): 0.0291 µg/mL | concentration at 4 h (Monkey #8, 4 Hours, 30 mg Free Acid in H15 Plus 2% CSD Suppositories): 0.0124 µg/mL | concentration at 6 h (Monkey #8, 6 Hours, 30 mg Free Acid in H15 Plus 2% CSD Suppositories): 0.00249 µg/mL | concentration at 24 h (Monkey #8, 24 Hours, 30 mg Free Acid in H15 Plus 2% CSD Suppositories): 0.0157 µg/mL | concentration at 0.25 h [6]: 0.0607 µg/mL | concentration at 0.5 h (Monkey #9 (pregnant animal with uterine recording), 0.5 Hours, 30 mg Free Acid in H15 Plus 2% CSD Suppositories): 0.0522 µg/mL | concentration at 1 h (Monkey #9 (pregnant animal with uterine recording), 1.0 Hours, 30 mg Free Acid in H15 Plus 2% CSD Suppositories): 0.0631 µg/mL | concentration at 1.5 h [6]: 0.0628 µg/mL | concentration at 2 h (Monkey #9 (pregnant animal with uterine recording), 2 Hours, 30 mg Free Acid in H15 Plus 2% CSD Suppositories): 0.0629 µg/mL | concentration at 3 h (Monkey #9 (pregnant animal with uterine recording), 3 Hours, 30 mg Free Acid in H15 Plus 2% CSD Suppositories): 0.0402 µg/mL | concentration at 4 h (Monkey #9 (pregnant animal with uterine recording), 4 Hours, 30 mg Free Acid in H15 Plus 2% CSD Suppositories): 0.0578 µg/mL | concentration at 6 h (Monkey #9 (pregnant animal with uterine recording), 6 Hours, 30 mg Free Acid in H15 Plus 2% CSD Suppositories): 0.032 µg/mL | concentration at 24 h (Monkey #9 (pregnant animal with uterine recording), 24 Hours, 30 mg Free Acid in H15 Plus 2% CSD Suppositories): 0.021 µg/mL | concentration at 0.25 h [7]: 0.0126 µg/mL | concentration at 0.5 h (Monkey #13, 0.5 Hours, 30 mg Free Acid in H15 Plus 2% CSD + 10% Triacetin Suppositories): 0.00925 µg/mL | concentration at 1 h (Monkey #13, 1 Hours, 30 mg Free Acid in H15 Plus 2% CSD + 10% Triacetin Suppositories): 0.0028 µg/mL | concentration at 1.5 h [7]: 0.00309 µg/mL | concentration at 2 h (Monkey #13, 2 Hours, 30 mg Free Acid in H15 Plus 2% CSD + 10% Triacetin Suppositories): 0.00546 µg/mL | concentration at 3 h (Monkey #13, 3 Hours, 30 mg Free Acid in H15 Plus 2% CSD + 10% Triacetin Suppositories): 0.0151 µg/mL | concentration at 4 h (Monkey #13, 4 Hours, 30 mg Free Acid in H15 Plus 2% CSD + 10% Triacetin Suppositories): 0.0225 µg/mL | concentration at 6 h (Monkey #13, 6 Hours, 30 mg Free Acid in H15 Plus 2% CSD + 10% Triacetin Suppositories): 0.0238 µg/mL | concentration at 24 h (Monkey #13, 24 Hours, 30 mg Free Acid in H15 Plus 2% CSD + 10% Triacetin Suppositories): 0.026 µg/mL | concentration at 0.25 h [8]: 0.0188 µg/mL | concentration at 0.5 h (Monkey #14, 0.5 Hours, 30 mg Free Acid in H15 Plus 2% CSD + 10% Triacetin Suppositories): 0.036 µg/mL | concentration at 1 h (Monkey #14, 1 Hours, 30 mg Free Acid in H15 Plus 2% CSD + 10% Triacetin Suppositories): 0.0251 µg/mL | concentration at 1.5 h [8]: 0.032 µg/mL | concentration at 2 h (Monkey #14, 2 Hours, 30 mg Free Acid in H15 Plus 2% CSD + 10% Triacetin Suppositories): 0.0287 µg/mL | concentration at 3 h (Monkey #14, 3 Hours, 30 mg Free Acid in H15 Plus 2% CSD + 10% Triacetin Suppositories): 0.0202 µg/mL | concentration at 4 h (Monkey #14, 4 Hours, 30 mg Free Acid in H15 Plus 2% CSD + 10% Triacetin Suppositories): 0.0166 µg/mL | concentration at 6 h (Monkey #14, 6 Hours, 30 mg Free Acid in H15 Plus 2% CSD + 10% Triacetin Suppositories): 0.0163 µg/mL | concentration at 24 h (Monkey #14, 24 Hours, 30 mg Free Acid in H15 Plus 2% CSD + 10% Triacetin Suppositories): 0.0129 µg/mL | concentration at 0.25 h [9]: 0.119 µg/mL | concentration at 0.5 h (Monkey #15 (pregnant animal with uterine recording), 0.5 Hours, 30 mg Free Acid in H15 Plus 2% CSD + 10% Triacetin Suppositories): 0.154 µg/mL | concentration at 1 h (Monkey #15 (pregnant animal with uterine recording), 1 Hours, 30 mg Free Acid in H15 Plus 2% CSD + 10% Triacetin Suppositories): 0.154 µg/mL | concentration at 1.5 h [9]: 0.0268 µg/mL | concentration at 2 h (Monkey #15 (pregnant animal with uterine recording), 2 Hours, 30 mg Free Acid in H15 Plus 2% CSD + 10% Triacetin Suppositories): 0.0448 µg/mL | concentration at 3 h (Monkey #15 (pregnant animal with uterine recording), 3 Hours, 30 mg Free Acid in H15 Plus 2% CSD + 10% Triacetin Suppositories): 0.0659 µg/mL | concentration at 4 h (Monkey #15 (pregnant animal with uterine recording), 4 Hours, 30 mg Free Acid in H15 Plus 2% CSD + 10% Triacetin Suppositories): 0.0221 µg/mL | concentration at 6 h (Monkey #15 (pregnant animal with uterine recording), 6 Hours, 30 mg Free Acid in H15 Plus 2% CSD + 10% Triacetin Suppositories): 0.013 µg/mL | concentration at 24 h (Monkey #15 (pregnant animal with uterine recording), 24 Hours, 30 mg Free Acid in H15 Plus 2% CSD + 10% Triacetin Suppositories): 0.00276 µg/mL
SMILES: C=C1C[C@@H](O)[C@H](/C=C/[C@@H](O)C(C)(C)CCCC)[C@H]1C/C=C\CCCC(=O)O [Free Acid, 9-deoxo-16,16-dimethyl-9-methylene-PGE2]
